Experimental data: patent publication US20100035793A1, “Modulators” (priority 2005, published 2010)

Experiments:
collagen = test: Western blot of collagen production in KF48 keloid fibroblasts; format: cell-based, human; conditions: KF48, Cucurbitacin I 30 min then 48 h in growth media, FIG. 5B
Experimental: These vectors containing Stat3 siRNA targets and empty vector were transfected into 293T-based Phoenix-Ampho packaging cell line for 7-9 h, and the amphotropic retroviruses were harvested 48 h later, pelleted to remove nonadherent cells and cellular debris, and filtered through a […] cellulose acetate membrane. The keloid fibroblasts were infected overnight in the presence of 4 μg/ml polybrene, and replaced with fresh 10% FBS/DMEM the following day. Cells were assayed for Western blot 48 h after infection, or for XTT cell proliferation, or for migration assay which was performed by replating the cells into 8 μM Transwell membrane and fixed 24 h later as described above.
(§1) Inhibition of Stat3 was also evaluated by incubating KF48 for 30 min with various doses of Cucurbitacin I, an inhibitor of Jak2/Stat3 activation (32), or with DMSO alone as a control, followed by further incubation in normal growth media for 48 h. […] Cucurbitacin I was acquired from Galchimia (A Corufia, Spain).
Western blot. Cells were either harvested in radioimmune precipitation assay (RIPA) buffer (150 mM NaCl, 50 mM Tris-HCl, pH 7.2, 1% deoxycholic acid, 1% Triton X-100, 0.25 mM EDTA, pH 8.0) containing protease inhibitor cocktail (Roche Diagnostics Corporation, Indianapolis, Ind., USA), or lysis buffer containing 150 mM NaCl, 10 mM Tris-HCl, pH 7.4, 0.5% Triton-X-100, 0.5% NP-40, 1 mM EDTA, 0.2 mM sodium vanadate, supplemented with protease inhibitor tablet. Total cell lysates were collected after centrifugation for 10 min at 4° C., and resolved in 7.5% or 10% polyacrylamide gel electrophoresis, and transferred to PVDF membranes (Bio-Rad Laboratories, Hercules, Calif., USA). The membranes were blotted with anti-phosphoTyr705 Stat3 antibody (1:1000 dilution; Cell Signaling, Beverly, Mass., USA) overnight at 4° C. overnight in PBS containing 1% BSA and 0.1% Tween 20, washed with PBS containing 0.2% Tween 20, and incubated with secondary anti-rabbit IgG antibody (1:2000 dilution; Sigma, Saint Louis, Mo., USA) for 1 h at room temperature, washed with PBS containing 0.2% Tween 20, followed by enhanced chemiluminescence (Amersham Biosciences, Buckinghamshire, UK) or Lumi-Light (Roche Diagnostics Corporation, Indianapolis, USA), and autoradiography. […]
Methods of assessing polypeptides regulated by STAT Collagen may be regulated by STAT 3 activation. monoclonal anti-human collagen I, II, III Was purchased from MONOSAN (Uden, Netherlands). […] These were detected via western blot as described above.

KF48 keloid fibroblasts [1] = test: Scratch-wound migration assay; format: cell-based, human
Experimental: Cell migration in keloidflbroblasts is inhibited by Stat3 siRNA and Cucurbitacin I. To examine the role of Stat3 in cell migration of skin fibroblasts, KF48 cells were infected with retrovirus expressing Stat3 siRNAs and scratch assays were performed as previously described. […] Three non-overlapping fields were acquired, and graphically illustrated as mean±SD in FIG. 8B. Transmembrane cell migration assays were also performed in triplicates as described earlier, and quantified as mean±SD (FIG. 8C). […] The right panels in FIG. 8B and 8C depict immunoblots of Stat3 and actin to show the efficiencies of inhibition by the Stat3 siRNAs.
The role of Stat3 in cell migration was also examined using Cucurbitacin I in the scratch assay. KF48 cells were first incubated with 10 μg/ml mitomycin C for 2 h, before treating for 30 min with DMSO or 1 μM Cucurbitacin I. The scratch-wound was performed, followed by further incubation in normal growth media. Pictures were taken at 0 h, 22 h and 48 h after wounding.
Migration assay. For migration assay using the scratch method, cells were grown to confluence and incubated with 10 μg/ml mitomycin C for 2 h, before a scratch wound was introduced using a yellow pipette tip. Cells were further incubated in normal growth media and pictures were taken at 0 h, 14 h, 15 h, 22 h, or 48 h after wounding. Three non-overlapping fields were captured by Axiovert 135 microscope from Zeiss and cells migrated into the wound site were counted and presented as mean±SD.

KF48 keloid fibroblasts [2] = test: XTT proliferation assay; format: cell-based, human
Description: Inhibition of Stat3 decreases cell proliferation. Enhanced fibroblast proliferation is a characteristic of keloid tissue. In agreement with this, keloid fibroblasts grown in normal culture conditions proliferated faster than normal fibroblasts, as observed in KF48 and KF107 compared to NF2 and NF4 (FIG. 6A). To investigate whether Stat3 is involved in the enhanced keloid fibroblast proliferation, KF48 was infected with retrovirus expressing Stat3 siRNAs, and cell proliferation was examined. […] XTT proliferation assay. Cells seeded at 3,000 cells/well in 96-well plates and grown in normal growth conditions, or infected with retroviral Stat3 siRNAs, were assayed for proliferation using the XrT proliferation kit (Roche) according to the manufacturer's instructions. The readings were taken at 450 nm and referenced against 690 nm, 2 h after the addition of the XrT reagent. Each sample was performed at quadruplicates in two to three independent experiments. Data are presented as mean±SD
Cell proliferation was also investigated by treating KF48 cells with various doses of Cucurbitacin I or with DMSO control, before incubating in normal growth media and examined daily over 4 days. Cucurbitacin I concentration as low as I μM was able to inhibit cell proliferation of KF48 compared to DMSO and untreated control (0 μM), whereas Cucurbitacin I exposure at 5 μM and above seemed to cause cell death (FIG. 6C).

[3] = system: A549 human lung carcinoma cells; set-up: dose or concentration left out as unconfirmed; conditions: Cucurbitacin I for 24 h; cited from earlier work
A549 tumor = conditions: nude mice; cited from earlier work
Stat3 [4] = molecular target: T1, Stat3 (Homo sapiens, UniProt P40763); conditions: cited from earlier work
Target sequence in this assay (P40763 whole entry, species assumed): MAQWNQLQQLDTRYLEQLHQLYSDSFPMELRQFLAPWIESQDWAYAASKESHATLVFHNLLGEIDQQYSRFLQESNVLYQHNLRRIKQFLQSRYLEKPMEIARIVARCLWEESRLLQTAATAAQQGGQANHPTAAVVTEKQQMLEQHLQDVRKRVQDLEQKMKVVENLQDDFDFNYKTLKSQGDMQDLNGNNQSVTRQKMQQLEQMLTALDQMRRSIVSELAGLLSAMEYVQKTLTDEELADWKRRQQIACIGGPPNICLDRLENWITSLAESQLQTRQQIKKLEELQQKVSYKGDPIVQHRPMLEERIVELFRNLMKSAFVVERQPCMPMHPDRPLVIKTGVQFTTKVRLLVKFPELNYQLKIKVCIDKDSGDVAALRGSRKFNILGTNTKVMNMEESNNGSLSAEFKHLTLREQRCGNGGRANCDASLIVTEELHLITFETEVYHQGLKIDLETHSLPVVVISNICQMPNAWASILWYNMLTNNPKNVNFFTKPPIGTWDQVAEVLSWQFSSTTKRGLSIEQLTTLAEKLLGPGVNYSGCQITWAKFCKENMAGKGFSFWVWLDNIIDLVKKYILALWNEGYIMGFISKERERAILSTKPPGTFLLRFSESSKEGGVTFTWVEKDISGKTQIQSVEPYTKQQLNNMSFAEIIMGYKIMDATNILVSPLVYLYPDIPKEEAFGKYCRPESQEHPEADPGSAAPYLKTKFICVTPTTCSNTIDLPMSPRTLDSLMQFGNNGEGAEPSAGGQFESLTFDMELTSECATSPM

JAK2 = JAK2 (Homo sapiens, UniProt O60674); conditions: cited from earlier work
Stat3 [5] = molecular target: T1, Stat3; test: Western blot of Stat3 phosphorylation and expression in KF48 treated with Cucurbitacin I; format: cell-based; set-up: primary fibroblasts derived from normal skin and keloid tissues were further examined; endogenous in cells; host or cells: KF48 primary keloid fibroblasts
Experimental: as §1
Target sequence in this assay (P40763 whole entry): as the sequence (P40763 whole entry, species assumed) above
Western blot. Cells were either harvested in radioimmune precipitation assay (RIPA) buffer (150 mM NaCl, 50 mM Tris-HCl, pH 7.2, 1% deoxycholic acid, 1% Triton X-100, 0.25 mM EDTA, pH 8.0) containing protease inhibitor cocktail (Roche Diagnostics Corporation, Indianapolis, Ind., USA), or lysis buffer containing 150 mM NaCl, 10 mM Tris-HCl, pH 7.4, 0.5% Triton-X-100, 0.5% NP-40, 1 mM EDTA, 0.2 mM sodium vanadate, supplemented with protease inhibitor tablet. Total cell lysates were collected after centrifugation for 10 min at 4° C., and resolved in 7.5% or 10% polyacrylamide gel electrophoresis, and transferred to PVDF membranes (Bio-Rad Laboratories, Hercules, Calif., USA). The membranes were blotted with anti-phosphoTyr705 Stat3 antibody (1:1000 dilution; Cell Signaling, Beverly, Mass., USA) overnight at 4° C. overnight in PBS containing 1% BSA and 0.1% Tween 20, washed with PBS containing 0.2% Tween 20, and incubated with secondary anti-rabbit IgG antibody (1:2000 dilution; Sigma, Saint Louis, Mo., USA) for 1 h at room temperature, washed with PBS containing 0.2% Tween 20, followed by enhanced chemiluminescence (Amersham Biosciences, Buckinghamshire, UK) or Lumi-Light (Roche Diagnostics Corporation, Indianapolis, USA), and autoradiography. The membranes were stripped with Restore Western Blotting Stripping Buffer (Pierce, Rockford, Ill., USA) according to manufacturer's instructions and reblotted with anti-phosphoSer727 Stat3 (1:1000 dilution; Cell Signaling, Beverly, Mass., USA) and secondary anti-mouse IgG antibody (1:2000 dilution; Sigma, Saint Louis, Mo., USA). The stripping and reblotting procedure was repeated with monoclonal anti-Stat3 (1:1000 dilution; BD Transduction Laboratories), polyclonal anti-actin (1:1000 dilution; Sigma) and monoclonal anti-collagen antibody (1:1000 dilution; MONOSAN).

[6] = KF48, 30 min treatment then 48 h in growth media, FIG. 5B

Chain of JAK2 (O60674 whole entry, species assumed): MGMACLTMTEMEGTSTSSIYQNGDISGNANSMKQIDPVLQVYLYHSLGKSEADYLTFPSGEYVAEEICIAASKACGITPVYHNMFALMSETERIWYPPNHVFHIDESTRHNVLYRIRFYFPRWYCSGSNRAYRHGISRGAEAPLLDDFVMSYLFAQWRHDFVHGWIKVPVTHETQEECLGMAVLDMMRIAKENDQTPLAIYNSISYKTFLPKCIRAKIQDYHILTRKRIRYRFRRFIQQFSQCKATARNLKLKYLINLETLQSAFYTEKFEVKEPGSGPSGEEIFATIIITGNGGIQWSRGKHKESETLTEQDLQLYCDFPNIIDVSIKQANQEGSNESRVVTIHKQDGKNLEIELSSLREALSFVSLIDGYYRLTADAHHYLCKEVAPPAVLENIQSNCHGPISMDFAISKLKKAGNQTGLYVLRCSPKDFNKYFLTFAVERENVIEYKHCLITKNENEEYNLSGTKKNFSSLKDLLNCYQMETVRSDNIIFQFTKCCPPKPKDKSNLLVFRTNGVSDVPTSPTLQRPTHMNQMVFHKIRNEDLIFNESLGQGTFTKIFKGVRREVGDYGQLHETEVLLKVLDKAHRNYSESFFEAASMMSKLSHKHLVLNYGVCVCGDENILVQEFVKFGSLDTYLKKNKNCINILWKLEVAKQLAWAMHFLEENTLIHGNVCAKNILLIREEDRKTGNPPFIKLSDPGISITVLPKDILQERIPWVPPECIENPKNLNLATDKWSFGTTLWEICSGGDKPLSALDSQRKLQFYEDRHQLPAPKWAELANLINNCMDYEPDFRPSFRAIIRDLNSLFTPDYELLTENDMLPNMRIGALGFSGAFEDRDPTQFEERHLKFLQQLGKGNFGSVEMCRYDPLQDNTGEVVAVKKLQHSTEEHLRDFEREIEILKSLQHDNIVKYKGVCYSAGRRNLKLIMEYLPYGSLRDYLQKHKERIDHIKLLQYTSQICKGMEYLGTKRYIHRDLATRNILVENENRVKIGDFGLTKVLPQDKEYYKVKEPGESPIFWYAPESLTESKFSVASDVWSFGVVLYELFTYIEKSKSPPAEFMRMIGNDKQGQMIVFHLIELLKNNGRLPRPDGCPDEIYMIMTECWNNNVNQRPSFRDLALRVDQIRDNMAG

**Q.** For `CC(C)(O)/C=C/C(=O)[C@](C)(O)[C@H]1[C@H](O)C[C@@]2(C)[C@@H]3CC=C4[C@@H](C=C(O)C(=O)C4(C)C)[C@]3(C)C(=O)C[C@]12C` [Cucurbitacin I], which “inhibition of collagen production” value (collagen) is on record?
**A.** The value was “dose-dependent inhibition”.

**Q.** And the “cell migration at 22 h” value (KF48 keloid fibroblasts [1]; 1 μM for 30 min, 22 h after wounding, vs DMSO, P<0.001)?
**A.** Its value is “significant reduction in cell migration”.

**Q.** And the “cell migration at 48 h” value (KF48 keloid fibroblasts [1]; 1 μM for 30 min, 48 h after wounding, vs DMSO)?
**A.** Its value is “delayed migration”.

**Q.** What about the “migration of KF48, scratch assay” value (KF48 keloid fibroblasts [1]; 1 μM for 30 min, compared to DMSO control, FIG. 8D) of the same compound?
**A.** The value was “decelerated the migration”.

**Q.** And the “concentration as low as, effective in decreasing rate of migration to that of normal fibroblasts” value (KF48 keloid fibroblasts [1]; keloid fibroblasts)?
**A.** Its value is 1 µM.

**Q.** And the “exposure that seemed to cause cell death” value (KF48 keloid fibroblasts [2]; KF48, FIG. 6C)?
**A.** Its value is at least 5 µM.

**Q.** What about the “concentration as low as, able to inhibit cell proliferation” value (KF48 keloid fibroblasts [2]; KF48, examined daily over 4 days, vs DMSO and untreated) of the same compound?
**A.** The value was 1 µM.

**Q.** What about the “observations at higher doses” value (KF48 keloid fibroblasts [2]; higher doses, FIGS. 6C and 8D) of the same compound?
**A.** The value was “cell morphology changes and the beginning of some cell death”.

**Q.** What about the apoptosis [3] of the same compound?
**A.** The apoptosis was 9.8%.

**Q.** And the tumor cell death [3]?
**A.** Its tumor cell death is 33%.

**Q.** What about the “inhibition of A549 tumor growth” value (A549 tumor) of the same compound?
**A.** Its value is 55.4%.

**Q.** And the “inhibition of activation of STAT 3” value (Stat3 [4])?
**A.** Its value is “inhibit”.

**Q.** What about the “inhibition of activation of JAK2” value (JAK2) of the same compound?
**A.** Its value is “inhibit”.

**Q.** And the “potency on pJak2 relative to pSTAT 3” value (JAK2)?
**A.** The value was “more potent inhibitor of pJak2 than pSTAT 3”.

**Q.** And the “effective concentration as low as (inhibition of pY705 Stat3, pS727 Stat3 and collagen production)” value (Stat3 [5]; KF48, 30 min treatment then 48 h)?
**A.** Its value is 1 μM.

**Q.** And the Stat3 expression (Stat3 [5]; KF48, 30 min treatment then 48 h, FIG. 5B)?
**A.** The Stat3 expression was “dose-dependent decrease”.

**Q.** And the “inhibition of pS727 Stat3” value (Stat3 [5]; [6])?
**A.** Its value is “dose-dependent inhibition”.

**Q.** And the “inhibition of pY705 Stat3” value (Stat3 [5]; [6])?
**A.** Its value is “dose-dependent inhibition”.
